# Source: patent US11498899B2, “Nitrone herbicides” (FMC Corporation, priority 2016, dated 2022)
# Legend:
# [1] = tested on: barnyardgrass (Echinochloa crus-galli); experiment: Test A preemergence, visual injury rating 0-100 (0 no effect, 100 complete control); assay type: in vivo
# Text: (§1) Seeds of plant species selected from barnyardgrass (Echinochloa crus-galli), kochia (Kochia scoparia), ragweed (common ragweed, Ambrosia elatior), ryegrass, Italian (Italian ryegrass, Lolium multiflorum), foxtail, giant (giant foxtail, Setaria faberii), foxtail, green (green foxtail, Setaria viridis), and pigweed (Amaranthus retroflexus) were planted into a blend of loam soil and sand and treated preemergence with a directed soil spray using test chemicals formulated in a non-phytotoxic solvent mixture which included a surfactant.
# (§2) At the same time, plants selected from these weed species and also wheat (Triticum aestivum), corn (Zea mays), blackgrass (Alopecurus myosuroides), and galium (catchweed bedstraw, Galium aparine) were planted in pots containing the same blend of loam soil and sand and treated with postemergence applications of test chemicals formulated in the same manner. Plants ranged in height from 2 to 10 cm and were in the one- to two-leaf stage for the postemergence treatment. Treated plants and untreated controls were maintained in a greenhouse for approximately 10 days, after which time all treated plants were compared to untreated controls and visually evaluated for injury. […] A dash (-) response means no test result.
# [2] = tested on: foxtail, giant (giant foxtail, Setaria faberii); experiment: Test A preemergence, visual injury rating 0-100; assay type: in vivo
# Text: as §1, §2
# kochia (Kochia scoparia) [3] = experiment: Test A preemergence, visual injury rating 0-100; assay type: in vivo
# Text: as §1, §2
# [4] = tested on: pigweed (Amaranthus retroflexus); experiment: Test A preemergence, visual injury rating 0-100; assay type: in vivo
# Text: as §1, §2
# [5] = tested on: ragweed (common ragweed, Ambrosia elatior); experiment: Test A preemergence, visual injury rating 0-100; assay type: in vivo
# Text: as §1, §2
# [6] = tested on: ryegrass, Italian (Italian ryegrass, Lolium multiflorum); experiment: Test A preemergence, visual injury rating 0-100; assay type: in vivo
# Text: as §1, §2
# [7] = tested on: barnyardgrass (Echinochloa crus-galli); experiment: Test A postemergence, visual injury rating 0-100; assay type: in vivo; conditions: 0 to 100 scale
# Text: as §1, §2
# [8] = tested on: blackgrass (Alopecurus myosuroides); experiment: Test A postemergence, visual injury rating 0-100; assay type: in vivo; conditions: 0 to 100 scale
# Text: as §1, §2
# corn (Zea mays) = experiment: Test A postemergence, visual injury rating 0-100; assay type: in vivo; conditions: 0 to 100 scale
# Text: as §1, §2
# [9] = tested on: foxtail, giant (giant foxtail, Setaria faberii); experiment: Test A postemergence, visual injury rating 0-100; assay type: in vivo; conditions: 0 to 100 scale
# Text: as §1, §2
# [10] = tested on: galium (catchweed bedstraw, Galium aparine); experiment: Test A postemergence, visual injury rating 0-100; assay type: in vivo; conditions: 0 to 100 scale
# Text: as §1, §2
# kochia (Kochia scoparia) [11] = experiment: Test A postemergence, visual injury rating 0-100; assay type: in vivo; conditions: 0 to 100 scale
# Text: as §1, §2
# [12] = tested on: pigweed (Amaranthus retroflexus); experiment: Test A postemergence, visual injury rating 0-100; assay type: in vivo; conditions: 0 to 100 scale
# Text: as §1, §2
# [13] = tested on: ragweed (common ragweed, Ambrosia elatior); experiment: Test A postemergence, visual injury rating 0-100; assay type: in vivo; conditions: 0 to 100 scale
# Text: as §1, §2
# [14] = tested on: ryegrass, Italian (Italian ryegrass, Lolium multiflorum); experiment: Test A postemergence, visual injury rating 0-100; assay type: in vivo; conditions: 0 to 100 scale
# Text: as §1, §2
# [15] = tested on: wheat (Triticum aestivum); experiment: Test A postemergence, visual injury rating 0-100; assay type: in vivo; conditions: 0 to 100 scale
# Text: as §1, §2
# [16] = tested on: ducksalad (Heteranthera limosa); experiment: Test B flooded paddy test, visual rating 0-100; conditions: Flood, 250 g ai/ha, applied to paddy water, rated after 13 to 15 days
# [17] = tested on: barnyardgrass (Echinochloa crus-galli); experiment: Test B flooded paddy test, visual rating 0-100; conditions: Flood, 250 g ai/ha, applied to paddy water, rated after 13 to 15 days
# rice (Oryza sativa) = experiment: Test B flooded paddy test, visual rating 0-100 (0 no effect, 100 complete control); conditions: Flood, 250 g ai/ha, applied to paddy water, rated after 13 to 15 days
Structure (SMILES),Barnyardgrass plant response rating (0 to 100 scale) ([1]; 125 g ai/ha),Barnyardgrass plant response rating (0 to 100 scale) ([1]; 500 g ai/ha),"Foxtail, Giant plant response rating (0 to 100 scale) ([2]; 125 g ai/ha)","Foxtail, Giant plant response rating (0 to 100 scale) ([2]; 500 g ai/ha)",Kochia plant response rating (0 to 100 scale) (kochia (Kochia scoparia) [3]; 125 g ai/ha),Kochia plant response rating (0 to 100 scale) (kochia (Kochia scoparia) [3]; 500 g ai/ha),Pigweed plant response rating (0 to 100 scale) ([4]; 125 g ai/ha),Pigweed plant response rating (0 to 100 scale) ([4]; 500 g ai/ha),Ragweed plant response rating (0 to 100 scale) ([5]; 125 g ai/ha),Ragweed plant response rating (0 to 100 scale) ([5]; 500 g ai/ha),"Ryegrass, Italian plant response rating (0 to 100 scale) ([6]; 125 g ai/ha)","Ryegrass, Italian plant response rating (0 to 100 scale) ([6]; 500 g ai/ha)",Barnyardgrass plant response rating ([7]; 125 g ai/ha),Barnyardgrass plant response rating ([7]; 500 g ai/ha),Blackgrass plant response rating ([8]; 125 g ai/ha),Blackgrass plant response rating ([8]; 500 g ai/ha),Corn plant response rating (corn (Zea mays); 125 g ai/ha),Corn plant response rating (corn (Zea mays); 500 g ai/ha),"Foxtail, Giant plant response rating ([9]; 125 g ai/ha)","Foxtail, Giant plant response rating ([9]; 500 g ai/ha)",also measured
COc1cccc(C2CC(C)=[N+]([O-])C2C(=O)Nc2cccc(F)c2F)n1 (racemic) [Compound 67],0,70,0,60,0,0,0,0,0,0,0,0,0,0,0,0,0,0,0,10,"Galium plant response rating ([10]; 125 g ai/ha): 0; Galium plant response rating ([10]; 500 g ai/ha): 0; Kochia plant response rating (kochia (Kochia scoparia) [11]; 125 g ai/ha): 0; Kochia plant response rating (kochia (Kochia scoparia) [11]; 500 g ai/ha): 0; Pigweed plant response rating ([12]; 125 g ai/ha): 0; Pigweed plant response rating ([12]; 500 g ai/ha): 0; Ragweed plant response rating ([13]; 125 g ai/ha): 0; Ragweed plant response rating ([13]; 500 g ai/ha): 0; Ryegrass, Italian plant response rating ([14]; 125 g ai/ha): 0; Ryegrass, Italian plant response rating ([14]; 500 g ai/ha): 0; Wheat plant response rating ([15]; 125 g ai/ha): 0; Wheat plant response rating ([15]; 500 g ai/ha): 0; Ducksalad plant response rating (0 to 100 scale) [16]: 65; Barnyardgrass plant response rating (0 to 100 scale) [17]: 15; Rice plant response rating (0 to 100 scale) (rice (Oryza sativa)): 15"
CC1=[N+]([O-])C(C(=O)Nc2cccc(F)c2F)C(c2cc(C)cc(Cl)c2)C1 (stereo not shown) [Compound 94],90,90,90,90,10,60,20,80,30,90,60,80,80,90,70,90,70,80,80,90,"Galium plant response rating ([10]; 125 g ai/ha): 20; Galium plant response rating ([10]; 500 g ai/ha): 60; Kochia plant response rating (kochia (Kochia scoparia) [11]; 125 g ai/ha): 20; Kochia plant response rating (kochia (Kochia scoparia) [11]; 500 g ai/ha): 30; Pigweed plant response rating ([12]; 125 g ai/ha): 20; Pigweed plant response rating ([12]; 500 g ai/ha): 70; Ragweed plant response rating ([13]; 125 g ai/ha): 20; Ragweed plant response rating ([13]; 500 g ai/ha): 70; Ryegrass, Italian plant response rating ([14]; 125 g ai/ha): 60; Ryegrass, Italian plant response rating ([14]; 500 g ai/ha): 90; Wheat plant response rating ([15]; 125 g ai/ha): 40; Wheat plant response rating ([15]; 500 g ai/ha): 80; Ducksalad plant response rating (0 to 100 scale) [16]: 100; Barnyardgrass plant response rating (0 to 100 scale) [17]: 60; Rice plant response rating (0 to 100 scale) (rice (Oryza sativa)): 0"
